Measured values from patent publication US9000044B2, “Substituted naphthylacetic acids” (Hoffmann-La Roche Inc., priority 2012, dated 2015).

Molecular target: human CRTH2 (Homo sapiens (Human), UniProt Q9Y5Y4)
Experiment: Calcium Flux Assay Using Fluorometric Imaging Plate Reader (FLIPR)
Format: cell-based
Settings: CHO-K1 cells with G-alpha 16 and human CRTH2; inhibition of DK-PGD2 ligand-induced Ca2+ flux
Procedure: Calcium Flux Assay Using Fluorometric Imaging Plate Reader (FLIPR)
Cell Culture Conditions: CHO-K1 cells previously transfected with G-alpha 16 were subsequently transfected with the human CRTH2 receptor and the neomycin resistance gene. Following selection in 800 μg/mL G418 (geneticin), individual clones were assayed for their receptor expression based on staining with an anti human CRTH2 IgG, followed by assaying for their response to 13,14-dihydro-15-keto Prostaglandin D2 (DK-PDG2) (ligand) in the Ca^2+ Flux assay. Positive clones were then cloned by limiting dilution cloning. The transfected cells were cultured in Ham's F-12 medium supplemented with 10% fetal bovine serum, 2 mM glutamine, 100 U/mL penicillin/100 μg/mL streptomycin, 200 μg/mL hygromycin B, and 800 μg/mL G418 (geneticin). Cells were harvested with trypsin-EDTA (trypsin-ethylenediaminetetraacetic acid) and counted using ViaCount® reagent (from Guava Technologies, Inc. which contains two DNA-binding dyes that enable the reagent user to distinguish between viable and non-viable cells). The cell suspension volume was adjusted to 2.5×10^5 cells/mL with complete growth media. Aliquots of 50 μL were dispensed into BD Falcon™ 384 well black/clear microplates (from BD Biosciences, a division of Becton, Dickinson and Company) and the microplates were placed in a 37° C. CO2 incubator overnight. The following day, the microplates were used in the assay.
Loading Buffer containing dye (from the FLIPR® Calcium 3 Assay Kit from Molecular Devices, a division of MDS Analytical Technologies and MDS Inc.) was prepared by dissolving the contents of one bottle into 200 mL Hank's Balanced Salt Solution containing 20 mM HEPES (4-(2-hydroxyethyl)-1-piperazineethanesulfonic acid) and 2.5 mM probenecid. Growth media was removed from the cell plates and 25 μL of Hank's Balanced Salt Solution (HBSS) containing 20 mM HEPES, 0.05% BSA and 2.5 mM probenecid was added to each well followed by 25 μL of diluted dye using a Multidrop dispenser. The plates were then incubated for 1 hour at 37° C.
During the incubation, test compound plates were prepared by adding 90 μL of HBSS/20 mM HEPES/0.005% BSA buffer to the 2 μL of serial diluted compounds. To prepare serial diluted compounds, 20 mM stocks of compounds were dissolved in 100% DMSO. The compound dilution plate was set up as follows: well #1 received 5 μL of compound plus 10 μL of DMSO. Wells 2-10 received 10 μL of DMSO. 5 μL was mixed and transferred from well #1 into well #2. 1:3 serial dilutions were continued out 10 steps. 2 μL of diluted compound was transferred into duplicate wells of a 384 well “assay plate” and then 90 μL of buffer was added.
After incubation, both the cell and “assay plate” plates were brought to the fluorometric imaging plate reader (FLIPR®) and 20 μL of the diluted compounds were transferred to the cell plates by the FLIPR®. Plates were then incubated for 1 hour at room temperature. […] During the assay, fluorescence readings were taken simultaneously from all 384 wells of the cell plate every 1.5 seconds. Five readings were taken to establish a stable baseline, then 20 μL of sample was rapidly (30 μL/sec) and simultaneously added to each well of the cell plate. The fluorescence was continuously monitored before, during and after sample addition for a total elapsed time of 100 seconds. Responses (increase in peak fluorescence) in each well following agonist addition were determined. The initial fluorescence reading from each well, prior to ligand stimulation, was used as a zero baseline value for the data from that well. The responses were expressed as % inhibition of the buffer control.

Sequence of human CRTH2 (Q9Y5Y4 whole entry): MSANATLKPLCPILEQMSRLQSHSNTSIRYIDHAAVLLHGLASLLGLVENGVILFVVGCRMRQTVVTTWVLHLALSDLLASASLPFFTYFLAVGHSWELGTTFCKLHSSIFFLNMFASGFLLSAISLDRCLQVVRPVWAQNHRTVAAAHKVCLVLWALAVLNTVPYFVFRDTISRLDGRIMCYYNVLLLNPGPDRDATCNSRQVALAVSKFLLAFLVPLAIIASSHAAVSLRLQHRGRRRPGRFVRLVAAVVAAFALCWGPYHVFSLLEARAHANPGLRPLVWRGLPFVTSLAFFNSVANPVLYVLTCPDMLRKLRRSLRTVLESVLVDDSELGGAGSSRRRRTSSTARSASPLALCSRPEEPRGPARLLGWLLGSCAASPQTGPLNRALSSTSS

Compound | IC50 [nM]
Cc1c(CC(=O)O)cc2ccc(F)cc2c1-c1ccc(S(=O)(=O)c2ccccc2Cl)cc1 [Example 2, {4-[4-(2-Chloro-benzenesulfonyl)-phenyl]-6-fluoro-3-methyl-naphthalen-2-yl}-acetic acid] | 0.7
Cc1c(CC(=O)O)cc2ccc(F)cc2c1-c1ccc(S(=O)(=O)c2cccc(Cl)c2)cc1 [Example 3, {4-[4-(3-Chloro-benzenesulfonyl)-phenyl]-6-fluoro-3-methyl-naphthalen-2-yl}-acetic acid] | 3.9
Cc1c(CC(=O)O)cc2ccc(F)cc2c1-c1ccc(S(=O)(=O)c2ccc(Cl)cc2)cc1 [Example 4, {4-[4-(4-Chloro-benzenesulfonyl)-phenyl]-6-fluoro-3-methyl-naphthalen-2-yl}-acetic acid] | 3.2
Cc1c(CC(=O)O)cc2ccc(F)cc2c1-c1ccc(S(=O)(=O)c2ccccc2C(F)(F)F)cc1 [Example 5, {6-Fluoro-3-methyl-4-[4-(2-trifluoromethyl-benzenesulfonyl)-phenyl]-naphthalen-2-yl}-acetic acid] | 1.3
Cc1c(CC(=O)O)cc2ccc(F)cc2c1-c1ccc(S(=O)(=O)c2ccccc2OC(F)(F)F)cc1 [Example 6, {6-Fluoro-3-methyl-4-[4-(2-trifluoromethoxy-benzenesulfonyl)-phenyl]-naphthalen-2-yl}-acetic acid] | 1
Cc1c(CC(=O)O)cc2ccc(F)cc2c1-c1ccc(S(=O)(=O)c2ccc(OC(F)(F)F)cc2)cc1 [Example 7, {6-Fluoro-3-methyl-4-[4-(4-trifluoromethoxy-benzenesulfonyl)-phenyl]-naphthalen-2-yl}-acetic acid] | 15.8
Cc1c(CC(=O)O)cc2ccc(F)cc2c1-c1ccc(S(=O)(=O)c2ccc(Cl)cc2Cl)cc1 [Example 8, {4-[4-(2,4-Dichloro-benzenesulfonyl)-phenyl]-6-fluoro-3-methyl-naphthalen-2-yl}-acetic acid] | 9.1
Cc1c(CC(=O)O)cc2ccc(F)cc2c1-c1ccc(S(=O)(=O)c2cc(Cl)ccc2Cl)cc1 [Example 9, {4-[4-(2,5-Dichloro-benzenesulfonyl)-phenyl]-6-fluoro-3-methyl-naphthalen-2-yl}-acetic acid] | 3.7
Cc1c(CC(=O)O)cc2ccc(F)cc2c1-c1ccc(S(=O)(=O)c2ccc(F)cc2F)cc1 [Example 10, {4-[4-(2,4-Difluoro-benzenesulfonyl)-phenyl]-6-fluoro-3-methyl-naphthalen-2-yl}-acetic acid] | 1.2
Cc1c(CC(=O)O)cc2ccc(F)cc2c1-c1ccc(S(=O)(=O)c2c(F)cccc2F)cc1 [Example 11, {4-[4-(2,6-Difluoro-benzenesulfonyl)-phenyl]-6-fluoro-3-methyl-naphthalen-2-yl}-acetic acid] | 1.2
Cc1c(CC(=O)O)cc2ccc(F)cc2c1-c1ccc(S(=O)(=O)c2cc(C(F)(F)F)cc(C(F)(F)F)c2)cc1 [Example 12, {4-[4-(3,5-Bis-trifluoromethyl-benzenesulfonyl)-phenyl]-6-fluoro-3-methyl-naphthalen-2-yl}-acetic acid] | 14
Cc1c(CC(=O)O)cc2ccc(F)cc2c1-c1ccc(S(=O)(=O)c2cc(Cl)cc(Cl)c2)cc1 [Example 13, {4-[4-(3,5-Dichloro-benzenesulfonyl)-phenyl]-6-fluoro-3-methyl-naphthalen-2-yl}-acetic acid] | 5.4
Cc1c(CC(=O)O)cc2ccc(F)cc2c1-c1ccc(S(=O)(=O)c2cc(F)cc(F)c2)cc1 [Example 14, {4-[4-(3,5-Difluoro-benzenesulfonyl)-phenyl]-6-fluoro-3-methyl-naphthalen-2-yl}-acetic acid] | 1.6
Cc1c(CC(=O)O)cc2ccc(Cl)cc2c1-c1ccc(S(=O)(=O)c2ccccc2Cl)cc1 [Example 15, {6-Chloro-4-[4-(2-chloro-benzenesulfonyl)-phenyl]-3-methyl-naphthalen-2-yl}-acetic acid] | 9.2
Cc1c(CC(=O)O)cc2ccc(Cl)cc2c1-c1ccc(S(=O)(=O)c2cccc(Cl)c2)cc1 [Example 16] | 8.1
Cc1c(CC(=O)O)cc2ccc(Cl)cc2c1-c1ccc(S(=O)(=O)c2ccc(Cl)cc2)cc1 [Example 17, {6-Chloro-4-[4-(4-chloro-benzenesulfonyl)-phenyl]-3-methyl-naphthalen-2-yl}-acetic acid] | 7
Cc1c(CC(=O)O)cc2ccc(Cl)cc2c1-c1ccc(S(=O)(=O)c2ccccc2C(F)(F)F)cc1 [Example 18, {6-Chloro-3-methyl-4-[4-(2-trifluoromethyl-benzenesulfonyl)-phenyl]-naphthalen-2-yl}-acetic acid] | 2.3
Cc1c(CC(=O)O)cc2ccc(Cl)cc2c1-c1ccc(S(=O)(=O)c2ccccc2OC(F)(F)F)cc1 [Example 19, {6-Chloro-3-methyl-4-[4-(2-trifluoromethoxy-benzenesulfonyl)-phenyl]-naphthalen-2-yl}-acetic acid] | 19.7
Cc1c(CC(=O)O)cc2ccc(Cl)cc2c1-c1ccc(S(=O)(=O)c2ccc(OC(F)(F)F)cc2)cc1 [Example 20, {6-Chloro-3-methyl-4-[4-(4-trifluoromethoxy-benzenesulfonyl)-phenyl]-naphthalen-2-yl}-acetic acid] | 12.9
Cc1c(CC(=O)O)cc2ccc(Cl)cc2c1-c1ccc(S(=O)(=O)c2cc(Cl)ccc2Cl)cc1 [Example 22, {6-Chloro-4-[4-(2,5-dichloro-benzenesulfonyl)-phenyl]-3-methyl-naphthalen-2-yl}-acetic acid] | 4.4
Cc1c(CC(=O)O)cc2ccc(Cl)cc2c1-c1ccc(S(=O)(=O)c2ccc(F)cc2F)cc1 [Example 23, {6-Chloro-4-[4-(2,4-difluoro-benzenesulfonyl)-phenyl]-3-methyl-naphthalen-2-yl}-acetic acid] | 2.3
Cc1c(CC(=O)O)cc2ccc(Cl)cc2c1-c1ccc(S(=O)(=O)c2c(F)cccc2F)cc1 [Example 24, {6-Chloro-4-[4-(2,6-difluoro-benzenesulfonyl)-phenyl]-3-methyl-naphthalen-2-yl}-acetic acid] | 312
Cc1c(CC(=O)O)cc2ccc(Cl)cc2c1-c1ccc(S(=O)(=O)c2cc(C(F)(F)F)cc(C(F)(F)F)c2)cc1 [Example 25, {4-[4-(3,5-Bis-trifluoromethyl-benzenesulfonyl)-phenyl]-6-chloro-3-methyl-naphthalen-2-yl}-acetic acid] | 44.7
Cc1c(CC(=O)O)cc2ccc(Cl)cc2c1-c1ccc(S(=O)(=O)c2cc(Cl)cc(Cl)c2)cc1 [Example 26, {6-Chloro-4-[4-(3,5-dichloro-benzenesulfonyl)-phenyl]-3-methyl-naphthalen-2-yl}-acetic acid] | 22.1
Cc1c(CC(=O)O)cc2ccc(Cl)cc2c1-c1ccc(S(=O)(=O)c2cc(F)cc(F)c2)cc1 [Example 27, {6-Chloro-4-[4-(3,5-difluoro-benzenesulfonyl)-phenyl]-3-methyl-naphthalen-2-yl}-acetic acid] | 0.7
Cc1c(CC(=O)O)cc2ccc(Cl)cc2c1-c1ccc(S(=O)(=O)Nc2ccc(F)cc2)cc1 [Example 28, {6-Chloro-4-[4-(4-fluoro-phenylsulfamoyl)-phenyl]-3-methyl-naphthalen-2-yl}-acetic acid] | 1.1
Cc1ccc(NS(=O)(=O)c2ccc(-c3c(C)c(CC(=O)O)cc4ccc(Cl)cc34)cc2)cc1 [Example 29, [6-Chloro-3-methyl-4-(4-p-tolylsulfamoyl-phenyl)-naphthalen-2-yl]-acetic acid] | 2.7
Cc1c(CC(=O)O)cc2ccc(Cl)cc2c1-c1ccc(S(=O)(=O)Nc2ccc(OC(F)(F)F)cc2)cc1 [Example 30, {6-Chloro-3-methyl-4-[4-(4-trifluoromethoxy-phenylsulfamoyl)-phenyl]-naphthalen-2-yl}-acetic acid] | 34.3
